Reference: patent US20120190059A1, “METHODS FOR OBTAINING HEPATOCYTES, HEPATIC ENDODERM CELLS AND HEPATIC PROGENITOR CELLS BY INDUCED DIFFERENTIATION” (BEIJING HUAYU[…]., LTD., priority 2009, published 2012)

Test system: cytochrome p450
Assay: PROD detection of cytochrome p450 activity in differentiated hepatocyte-like cells
Conditions: phenobarbital induction versus no induction, hepatocyte-like cells differentiated from hepatic progenitor cells

Q: For CCC1(c2ccccc2)C(=O)NC(=O)NC1=O [Phenobarbital], which “PROD activity of the differentiated cells” value is on record?
A: could improve the PROD activity

Q: And the “PROD activity of the differentiated cells” value (listed as phenobarbital)?
A: PROD activity was enhanced
